The numbers were not newly measured in US9884017B2, “Foamable vehicles and pharmaceutical compositions comprising aprotic polar solvents and uses thereof” (Foamix Pharmaceuticals Ltd., priority 2009, dated 2018), which cites them from elsewhere.

The conditions of this data set: 25° C.

Turning to `CN(C)C=O` [DMF, dimethylformamide], the Dielectric constant was 36.7 and the Polarity was 3.8 Debye.

Turning to `C[S+](C)[O-]` [DMSO, Dimethyl sulfoxide], the Dielectric constant is on record as 46.4 and the Polarity is 4.3 Debye.
